We go through three molecules from patent US20200054651A1, “COMPOSITIONS AND METHODS FOR MODULATING PPP2R1A” (The Regents of the University of California, priority 2017, published 2020).

The target of one assay is T1, C377 of PPP2R1A (Homo sapiens, UniProt P30153).
T1 construct: pre-incubating withaferin A (10 μM) for 30 min in 231MFP breast cancer cell proteomes; endogenous in cells; host or cells: 231MFP breast cancer cells (MDA-MB-231 derived)
Kind of assay: isoTOP-ABPP after in situ treatment of 231MFP cells. The assay is classed as binding. The following applies: 4 h in 231MFP cells in situ, IAyne labeling ex situ. The protocol: IsoTOP-ABPP studies were performed using the methods described in “Nature 534(7608), 570-574 (2016)” by Backus K. M., et al. and “Nature 468(7325), 790-795 (2010)” by Weerapana E., et al. […] Then, IAyne (iodoacetamide-alkyne) labeling was performed for 1 hour at room temperature. CuAAC was used by sequential addition of tris(2-carboxyethyl)phosphine (1 mM), tris[(1-benzyl-1H-1,2,3-triazol-4-yl)methyl]amine (34 μM), copper (II) sulfate (1 mM), and biotin-linker-azide where the linker was functionalized with a TEV protease recognition sequence along with an isotopically light or heavy valine for treatment of control or treated proteome, respectively. After click reactions, proteomes were precipitated by centrifugation at 6500×g, washed in ice-cold methanol, combined in a 1:1 control/treated ratio, washed again, then denatured and re-solubilized by heating in 1.2% SDS/PBS to 80° C. for 5 minutes. Insoluble components were precipitated by centrifugation at 6500×g and soluble proteome was diluted in 0.2% SDS/PBS (5 ml). Labeled proteins were bound to avidin-agarose beads (170 μl re-suspended beads/sample) while rotating overnight at 4° C. Bead-linked proteins were enriched by washing three times each in PBS and water, then re-suspended in urea/PBS (6 M), reduced in TCEP (1 mM), alkylated with iodoacetamide (18 mM), then washed and re-suspended in urea/PBS (2 M), and finally trypsinized overnight with 0.5 μg/μl sequencing grade trypsin. Tryptic peptides were eluted off. Beads were washed in PBS (3 times) and water (3 times), washed in TEV buffer solution (water, TEV buffer, 100 μM dithiothreitol), and re-suspended in buffer with Ac-TEV protease and then incubated overnight. Peptides were diluted in water, acidified with formic acid (1.2 M), and prepared for analysis.
Peptides from all proteomic experiments were pressure-loaded onto an Agilent 600 series RP-HPLC system equipped with a capillary tubing (250 mm) packed with Aqua C18 reverse-phase resin (4 cm). The system was previously equilibrated with a gradient (0% B to 100% B over 10 minutes, 100% B for 5 minutes, then 0% B for 5 minutes; buffer A: 95:5 water:acetonitrile, 0.1% formic acid; buffer B: 80:20 acetonitrile:water, 0.1% formic acid). The samples were then attached using a MicroTee PEEK 360 μm fitting to a laser pulled column (13 cm) packed with Aqua C18 reverse-phase resin (10 cm) and strong-cation exchange resin (3 cm) for isoTOP-ABPP studies. Samples were analyzed using an Q Exactive Plus mass spectrometer using a 5-step Multidimensional Protein Identification Technology (MudPIT) program. The system was run using a gradient (5% B to 55% B; buffer A: 95:5 water:acetonitrile, 0.1% formic acid; buffer B: 80:20 acetonitrile:water, 0.1% formic acid), along with a salt bump feeding aqueous ammonium acetate (500 mM) at an increment of 0%, 25%, 50%, 80%, to 100%. Data was collected in data-dependent acquisition mode with dynamic exclusion enabled (60 sec). One full MS scan (400-1800 m/z) (MS1 scan) was conducted, followed by MS2 scan (ITMS) (15 times) of the most abundant ions. Heated capillary temperature was set to 200° C. and the nanospray voltage was set to 2.75 kV.
Data was extracted in the form of MS1 and MS2 files using Raw Extractor 1.9.9.2 and searched against the Uniprot […] database using ProLuCID search methodology in IP2 v.3, described in “J Proteomics 129:16-24 (2015)” by Xu T, et al. Cysteine residues were searched with a static modification for carboxyaminomethylation (+m/z 57.02146), up to two differential modifications for methionine oxidation, and either the light or heavy TEV tags (+m/z 464.28596 or +m/z 470.29977, respectively). Peptides were required to have at least one tryptic end and to contain the TEV modification. ProLUCID data was filtered through DTASelect to achieve a peptide false-positive rate below 1%. […]

Assay [1] deals with phosphorylated AKT (p-AKT). The experiment in a line: Western blot of phosphorylated AKT in 231MFP cells. In kind it is cell-based. The protocol: Antibodies to vinculin, phospho-Akt (Ser473), and Akt were obtained from a commercial source and proteomes were blotted per recommended manufacturer's' procedure. Cells were lysed in lysis buffer (containing the following: 20 mM Tris pH 7.5, 150 mM NaCl, 1 mM EDTA, 1 mM EGTA, 1% Triton X-100, 2.5 mM pyrophosphate, 50 mM NaF, 5 mM (3-glycero-phosphate, 1 mM Na3VO4, 50 nM calyculin A, and protease inhibitors). Lysate was incubated on a rotator at 4° C. for 30 min, and insoluble material was removed via centrifugation at a max speed for 10 minutes. Proteins were resolved by SDS/PAGE and transferred to nitrocellulose membranes using the iBlot system. Blots were blocked with 5% nonfat milk in Tris-buffered saline containing Tween 20 (TBST) solution for 1 hour at room temperature, washed in TBST, and probed with primary antibody diluted in a manufacturer recommended diluent overnight at 4° C. Following washes with TBST, the blots were incubated in the dark with secondary antibodies purchased from Rockland and used at 1:10 000 dilution in 5% nonfat milk in TBST at room temperature. Blots were visualized using an Odyssey Li-Cor scanner after additional washes.

Assay [2] has as its target T2, PP2A complex with wild-type PPP2R1A, PPP2R2A and PPP2CA (Homo sapiens, UniProt P30153).
T2 construct: PPP2CA protein TP301334) TP301334; host or cells: HEK293T
Kind of assay: In vitro PP2A activity assay (phosphate release from phosphopeptide). In kind it is biochemical. The note with it: 30 min prior to assay. The protocol: Wild-type mammalian expression plasmids with C-terminal FLAG tag were purchased from Origene (PPP2R1A: RC200056; PPP2R2A, MR207137). The PPP2R1A C337A mutant was generated with Agilent QuickChange Lightning site-directed mutagenesis kit according to manufacturer's instructions. […] Immediately prior to transfection, media was replaced with DMEM+5% FBS. Each plate was transfected with 20 μg of overexpression plasmid with 100 μg PEI (Sigma). After 48 hrs cells were collected in TBS, lysed by sonication, and batch bound with anti-DYKDDDDK (SEQ ID NO: 1) resin (GenScript) for 1 hr. Lysate and resin was loaded onto a gravity flow column and washed, followed by elution with 250 ng/uL 3×FLAG peptide (ApexBio A6001). Purity and concentration were verified by PAGE, UV/Spectroscopy, and BCA assay.
Activity was assayed by addition of 60 μM Thr phosphopeptide (KRpTIRR, Millipore, 12-219) at 37° C. for 25 min, and free phosphate was detected colorimetrically by malachite green kit (Cayman 10009325) per manufacturer's instructions.

T1 sequence (P30153 whole entry): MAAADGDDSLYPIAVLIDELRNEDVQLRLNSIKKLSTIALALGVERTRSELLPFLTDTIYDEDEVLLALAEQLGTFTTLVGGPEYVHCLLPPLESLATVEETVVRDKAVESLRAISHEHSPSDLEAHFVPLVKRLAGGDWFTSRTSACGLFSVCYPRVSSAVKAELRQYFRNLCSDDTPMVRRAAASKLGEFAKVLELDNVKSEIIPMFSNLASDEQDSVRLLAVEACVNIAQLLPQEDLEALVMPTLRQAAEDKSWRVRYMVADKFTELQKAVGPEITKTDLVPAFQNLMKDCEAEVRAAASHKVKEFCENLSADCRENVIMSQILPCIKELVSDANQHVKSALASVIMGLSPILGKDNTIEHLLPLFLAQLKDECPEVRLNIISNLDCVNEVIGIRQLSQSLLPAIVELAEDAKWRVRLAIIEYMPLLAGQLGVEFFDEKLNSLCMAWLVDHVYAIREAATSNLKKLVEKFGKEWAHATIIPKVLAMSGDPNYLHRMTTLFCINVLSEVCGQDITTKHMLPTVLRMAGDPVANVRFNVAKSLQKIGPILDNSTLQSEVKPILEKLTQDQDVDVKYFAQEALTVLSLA
T2 sequence (P30153 whole entry): as above
T2 sequence (Q6P1F6 whole entry partner): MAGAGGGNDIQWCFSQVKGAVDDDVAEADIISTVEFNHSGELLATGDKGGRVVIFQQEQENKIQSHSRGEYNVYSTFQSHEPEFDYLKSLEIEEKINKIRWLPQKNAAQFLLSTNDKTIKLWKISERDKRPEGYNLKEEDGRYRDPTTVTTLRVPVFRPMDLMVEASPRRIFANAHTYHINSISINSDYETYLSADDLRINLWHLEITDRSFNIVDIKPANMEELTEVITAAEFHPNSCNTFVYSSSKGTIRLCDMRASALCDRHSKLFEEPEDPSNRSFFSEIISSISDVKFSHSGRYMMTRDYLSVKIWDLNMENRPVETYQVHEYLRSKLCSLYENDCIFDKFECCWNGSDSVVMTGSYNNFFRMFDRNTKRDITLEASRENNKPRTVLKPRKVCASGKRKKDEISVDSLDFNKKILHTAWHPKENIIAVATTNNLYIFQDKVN
T2 sequence (P67775 whole entry partner): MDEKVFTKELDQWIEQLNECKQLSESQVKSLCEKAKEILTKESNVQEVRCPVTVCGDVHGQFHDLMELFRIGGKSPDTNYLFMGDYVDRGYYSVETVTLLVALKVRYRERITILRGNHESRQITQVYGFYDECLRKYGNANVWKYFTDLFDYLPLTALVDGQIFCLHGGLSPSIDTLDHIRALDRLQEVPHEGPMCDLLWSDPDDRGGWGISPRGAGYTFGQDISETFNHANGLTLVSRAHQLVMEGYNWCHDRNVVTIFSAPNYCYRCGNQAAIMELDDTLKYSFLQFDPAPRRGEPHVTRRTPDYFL

For `O=C(CCl)Nc1ccc2c(c1)OCCO2` [DKM 2-90, 2-Chloro-N-(2,3-dihydrobenzo[β][1,4]dioxin-6-yl)acetamide], on C377 of PPP2R1A (100 μM), the “isotopically light to heavy ratio, C377 of PPP2R1A” value (from here on “isotopically light to heavy ratio”) is given as 5.9. For the same molecule, the “phosphorylated AKT levels” value in assay [1] (100 μM, 5 h) is “inhibit AKT signaling”.

Consider `O=C(CCl)N(Cc1ccccc1)c1ccc2c(c1)OCCO2` [JNS 1-40, N-benzyl-2-chloro-N-(2,3-dihydrobenzo[b][1,4]dioxin-6-yl)acetamide], for which the “PP2A activity, wild-type PPP2R1A” value in assay [2] (100 μM) is listed as “activated PP2A activity”. The “isotopically light to heavy ratio” value at C377 of PPP2R1A (100 μM) is listed as > 5. In addition, in assay [1] (100 μM, 5 h), the “phosphorylated AKT levels” value is “significantly reduced phosphorylated AKT levels”.

With `CC1=C(CO)C(=O)O[C@@H]([C@@H](C)[C@H]2CC[C@H]3[C@@H]4C[C@H]5O[C@]56[C@@H](O)C=CC(=O)[C@]6(C)[C@H]4CC[C@]23C)C1` [withaferin A, reference compound], the “PP2A activity, wild-type PPP2R1A” value in assay [2] (10 μM) is on record as “activated PP2A activity”. Besides, on C377 of PPP2R1A (10 μM), the “isotopically light to heavy ratio” value came to 4.0. The “phosphorylated AKT levels” value in assay [1] (10 μM, 4 h) is reported as “reduced phosphorylated AKT levels”. In addition, in assay [1] (10 μM, 4 h, co-treatment with cantharidin (10 μM, 4 h)), the “phosphorylated AKT levels with cantharidin co-treatment” value is “rescued”.
